Measured values: EP0408371B1, “Hemoregulatory peptides” (SMITHKLINE BEECHAM CORPORATION, priority 1989, dated 1994)
Read-outs that look alike come from different tables or passages of the source. Square brackets hold non-standard residues; d marks the D form. Ends that are not written are not given here. pGlu = O=C1CC[C@@H](C(=O)O)N1

What was measured:
[1] = system: human bone marrow stromal cell line, C6; assay: Induction of colony stimulating activity by stromal cells; supernatant tested in soft agar assay (CFU-C); type: cell-based; details: 5% Supernatant, Lewis rat bone marrow cells
Protocol: The human bone marrow stromal cell line, C6, is grown to confluency in plastic tissue culture dishes in RPMI-1640 medium and 5% FBS. On the day prior to the experiment this medium is changed to DMEM without added serum. To these cultures, the compounds are added for one hour, then washed from the cultures. The medium is replaced with fresh DMEM and the cells are incubated for 24 hours at 37°C, 5% CO₂. After 24 hours the C6 cell culture supernatant is collected, sterile filtered, and frozen until it can be assayed for the presence of hematopoietic colony stimulating activity (CSA) as set forth below.
Bone marrow cells are obtained from Lewis rats. They are adjusted to 10⁶ cells/ml in DMEM without serum. A single later agar system utilizing the following is used: DMEM enriched with nutrients (NaHCO₃, pyruvate, amino acids, vitamins, and HEPES buffer); 0.3% Bacto agar, and 20% Lewis rat serum. To this are added dilutions of C6 cell line supernatant (10-2.5%) from above along with rat bone marrow cells (final concentration = 10⁵ cells/ml). The agar plates are incubated at 37°C, 5% CO₂ for 7-8 days. Colonies of proliferating bone marrow cells (CFU-C) are counted utilizing a microscope. The number of agar colonies counted is proportional to the amount of CSA present within the C6 bone marrow stromal cell line supernatant.

[2] = system: human CFU-gm; details: human CFU-gm in vitro; cited from earlier work
[3] = system: murine CFU-gm; details: murine CFU-gm in vitro; cited from earlier work
[4] = system: murine myelopoietic cells; details: in vivo; cited from earlier work
[5] = system: myelopoietic cells; details: in vitro; cited from earlier work
[6] = system: myelopoietic cells; details: in vivo; cited from earlier work

(pGlu-Glu-Asp)₂-Sub-(Lys)₂ [Example 2]
Hematopoietic Colony Stimulating Activity, Percent of Control ([1]; Dose 0.01 ng/ml): 97% of Control
Hematopoietic Colony Stimulating Activity, Percent of Control ([1]; Dose 0.1 ng/ml): 154% of Control
Hematopoietic Colony Stimulating Activity, Percent of Control ([1]; Dose 1 ng/ml): 188% of Control
Hematopoietic Colony Stimulating Activity, Percent of Control ([1]; Dose 10 ng/ml): 207% of Control
Hematopoietic Colony Stimulating Activity, Percent of Control ([1]; Dose 100 ng/ml): 241% of Control
Hematopoietic Colony Stimulating Activity, Percent of Control ([1]; Dose 1000 ng/ml): 192% of Control

HP-5: oxidation product of pGlu-Glu-Asp-Cys-Lys, a dimer formed by disulfide bridges (EP-A-0267741) ([pGlu]EDCK; also: disulfide-linked dimer (oxidation product))
colony formation of CFU-gm [2]: strongly stimulates colony formation
colony formation of CFU-gm [3]: strongly stimulates colony formation
effect on murine myelopoietic cells [4]: up regulates murine myelopoietic cells

pGlu-Glu-Asp-Cys-Lys ([pGlu]EDCK)
effect on myelopoietic cells [5]: selective inhibitory effect
effect on myelopoietic cells [6]: selective inhibitory effect
